# Measured values: US10071163B2, “Compositions and methods for selective delivery of oligonucleotide molecules to specific neuron types” (nLife Therapeutics, S.L., priority 2010, dated 2018)
# Assays:
# 5-HTT mRNA = assay: In situ hybridization of 5-HTT mRNA after intranasal 5-HTT-NLF-siRNA; assay type: in vivo, mice (C57BL/6J)
# Procedure: Twenty-four h after treatment, mice were killed by decapitation and the brains rapidly removed, frozen on dry ice and stored at −20° C. Tissue sections, 14 μm thick, were cut using a microtome-cryostat, thaw-mounted onto APTS (3-aminopropyltriethoxysilane) coated slides and kept at −20° C. until use.
# To determine 5-HTT mRNA expression level, in situ hybridization assays were performed using an oligodeoxyribonucleotide probe specific for 5-HIT, complementary to bases 820-863 (Mouse, GenBank Accession Number: NM_010484). The 5-HTT oligonucleotide was individually labeled (2 pmol) at its 3′-end with [^33P]-dATP (>2500 Ci/mmol) using terminal deoxynucleotidyltransferase, purified by centrifugation using QIAquick Nucleotide Removal Kit. The protocols for single label in situ hybridization were based on previously described procedures. Briefly, frozen tissue sections, as described in example 2, were first brought to room temperature, fixed for 20 min at 4° C. in 4% paraformaldehyde in phosphate buffered saline (1×PBS: 8 mM Na2HPO4, 1.4 mM KH2PO4, 136 mM NaCl, 2.6 mM KCl), washed for 5 min in 3×PBS at room temperature, twice for 5 min each in 1×PBS and incubated for 2 min at 21° C. in a solution of pre-digested pronase at a final concentration of 24 U/ml in 50 mM Tris-HCl pH 7.5, 5 mM EDTA. The enzymatic activity was stopped by immersion for 30 s in 2 mg/ml glycine in 1×PBS. […]
# [1] = test system: serotonin transporter (5-HTT); assay: [3H]citalopram autoradiographic binding of serotonin transporter after intranasal 5-HTT-NLF-siRNA; assay type: in vivo, mice; conditions: vs vehicle or NLF-nonsense-siRNA, FIG. 15B-C
# Source text: 24-48. h after NLF-siRNA intranasal administration, mice were killed and their brains were removed and serial coronal sections of 14 μm thickness were obtained at the following AP coordinates, in mm, relative to bregma (Franklin and Paxinos, 1997): 2.2 (prefrontal cortex-PFC), 1.1 to 0.6 (caudate putamen—CPu, lateral and medial septal nucleus—Sep, ventral pallidum—VP), −1.5 to −1.8 (hippocampus—HPC, hypothalamus—Hip) and −4.24 to −4.96 (dorsal raphe nucleus—DR and median raphe nucleus—MnR). Briefly, frozen tissue sections were thawed and dried, preincubated in 50 mM Tris-HCl buffer (pH 7.4 at 25° C.) containing 120 mM NaCl and 5 mM KCl for 15 mm at room temperature. […] After incubation and washing, tissue sections were dipped in distilled ice-cold water and dried rapidly under a cold air stream. Tissues were exposed to tritium-sensitive film together with plastic ^3H-standards for 40 days at 4° C. Quantitative analysis of the autoradiograms was done with AIS computerized image analysis system. By using tissue-calibrated data from the co-exposed radioactive standards, OD values of autoradiograms were transformed to levels of radioactivity bound (nCi/mg tissue protein) to specific brain regions in tissue sections.
substance,measurement,setting,value
5-HTT-NLF-siRNA: 5-HTT-targeted siRNA (SEQ ID NO 14/15) conjugated to a group of formula (I) and one targeting agent (sertraline) (chain 1 GCUAGCUACAACAAGUUCATT; chain 2 UGAACUUGUUGUAGCUAGCTT; further chemistry not given here),5-HTT mRNA level in dorsal (DR) and median (MnR) raphe nuclei,"5-HTT mRNA; intranasal 10 and 30 μg, vs vehicle and nonsense-NLF-siRNA, FIG. 15A",reduction of 5-HTT mRNA level
same,knockdown of 5-HTT mRNA in dorsal raphe nuclei,"5-HTT mRNA; intranasal, both doses (10 and 30 μg/mice), three antero-posterior coordinates, FIG. 14A",specific knowdown of 5-HTT mRNA
same,serotonin transporter levels in the different brain areas,[1],reduction of the serotonin transporter levels
